Data as given in US7947852B2, “Naphthalene compounds, a process for their preparation and pharmaceutical compositions containing them” (Les Laboratoires Servier, priority 2007, dated 2011).

Assays:
MT1 receptor = MT1 receptor (Homo sapiens, UniProt P48039); assay: Melatonin MT1 receptor binding study; conditions: 2-[125I]-iodomelatonin radioligand, competitive binding
Protocol: (§1) The MT1 or MT2 receptor binding experiments are carried out using 2-[^125I]-iodomelatonin as reference radioligand. The radioactivity retained is determined using a liquid scintillation counter.
(§2) Competitive binding experiments are then carried out in triplicate using the various test compounds. A range of different concentrations is tested for each compound. The results enable the binding affinities of the compounds tested (Ki) to be determined.

MT2 receptor = biological target: T1, MT2 receptor (Homo sapiens, UniProt P49286); assay: Melatonin MT2 receptor binding study; conditions: 2-[125I]-iodomelatonin radioligand, competitive binding
T1 sequence (P49286 1-362): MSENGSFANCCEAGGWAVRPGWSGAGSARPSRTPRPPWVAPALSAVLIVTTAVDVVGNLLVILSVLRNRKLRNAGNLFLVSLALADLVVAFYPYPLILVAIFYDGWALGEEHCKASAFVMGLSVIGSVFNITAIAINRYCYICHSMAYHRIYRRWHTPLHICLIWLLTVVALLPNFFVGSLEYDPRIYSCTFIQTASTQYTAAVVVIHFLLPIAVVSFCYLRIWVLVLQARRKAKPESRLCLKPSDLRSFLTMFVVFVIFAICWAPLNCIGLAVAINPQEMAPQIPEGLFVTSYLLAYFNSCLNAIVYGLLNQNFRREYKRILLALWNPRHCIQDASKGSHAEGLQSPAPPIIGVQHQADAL
Protocol: as §1, §2

Chain of MT1 receptor (P48039 whole entry): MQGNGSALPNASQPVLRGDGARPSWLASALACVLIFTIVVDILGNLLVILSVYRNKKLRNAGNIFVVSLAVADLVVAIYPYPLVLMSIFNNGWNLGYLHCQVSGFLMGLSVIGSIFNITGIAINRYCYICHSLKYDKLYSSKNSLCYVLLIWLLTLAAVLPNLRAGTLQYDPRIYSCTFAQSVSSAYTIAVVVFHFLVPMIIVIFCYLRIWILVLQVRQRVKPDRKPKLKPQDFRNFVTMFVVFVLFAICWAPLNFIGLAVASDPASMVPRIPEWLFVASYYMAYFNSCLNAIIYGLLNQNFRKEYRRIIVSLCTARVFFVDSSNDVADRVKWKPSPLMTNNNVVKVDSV

Ki (MT1 receptor): 7 nM | Ki (MT2 receptor): 0.8 nM
SMILES: COc1ccc2cccc(/C(CNC(C)=O)=N\O)c2c1 [Example 2, N-[(2E)-2-(Hydroxyimino)-2-(7-methoxy-1-naphthyl)ethyl]acetamide]
